Target: streptavidin (Streptomyces avidinii, UniProt P22629)
Assay: DNA nanoswitch gel electrophoresis assay of biotin-streptavidin dissociation kinetics
Format: binding
Conditions: for dissociation time: 150 mM salt, multiplied by two to represent a single biotin-streptavidin interaction
Description: Linkers were designed according to protocols for long (2580 bp) and short (600 bp) loops as described herein. […] All other oligos were the same as those used previously. Briefly, looped constructs were made by mixing a long single-stranded DNA (M13mp18, in this case) with over 121 oligos that are complementary along its length. […] The constructs come together by self-assembly with a temperature ramp heating and cooling them.
Recognizing that the nanoswitch conformation informs the receptor-ligand binding state (bound or unbound), and that the conformation can be observed on a gel, an assay to measure bulk interaction kinetics was developed. The assay, conceptually shown in FIG. 7, proceeds as follows: 1) form a looped nucleic acid (DNA) construct that relies on a receptor and a ligand being bound to each other, 2) quench the interaction between the receptor and the ligand, for example, with excess receptor or ligand to prevent rebinding following dissociation, 3) monitor the relative amount of looped construct over time to measure kinetics.
Linear double-stranded DNA constructs 7249 base pairs (bp) in length were self-assembled by combining the single-stranded M13 bacteriophage genome with 121 complementary oligos. (See also Halvorsen K et al., 2011). Two of the oligos were labeled with single biotins and placed 2580 bp from each other, such that interaction with streptavidin induced the formation of a 2580 bp loop in the structure. […] The entire array of 16 conditions with five time points each plus controls was then run on a single 96 lane agarose gel (FIG. 8).
To determine the biotin-streptavidin dissociation kinetics, an image of the gel was analyzed using publicly available software (ImageJ). The gel analysis tool in ImageJ was used to measure the integrated intensity of the band containing looped construct, and this quantity was normalized by the integrated intensity of a reference band in the same lane from a DNA ladder, which was added to the construct prior to starting experiments. Individual time constants for each experimental condition were determined by fitting a single exponential decay to the data using an error weighted least squares fitting.

Chain of streptavidin (P22629 25-183, species assumed): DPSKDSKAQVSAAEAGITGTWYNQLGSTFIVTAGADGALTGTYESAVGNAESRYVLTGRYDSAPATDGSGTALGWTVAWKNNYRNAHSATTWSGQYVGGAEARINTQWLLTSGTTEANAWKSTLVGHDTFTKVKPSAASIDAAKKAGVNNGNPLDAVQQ

With `O=C(O)CCCC[C@@H]1SC[C@@H]2NC(=O)N[C@@H]21` [biotin] the dissociation time (25° C.) was 148 ± 10 h, the dissociation time (37° C.) was 11.2 ± 3 h and the “time constants, range over the conditions tested” value (16 conditions: four salts, four temperatures (4° C. to 50° C., 5 mM to 500 mM)) was “half of an hour to two months”. The “time constants, range (FIG. 8 legend)” value (16 experimental conditions, FIG. 8 table) was “less than 1 hour to over 1000 hours”, the “variation of off-rate with temperature” value (at a given salt concentration, from 4° C. to 50° C.) was “over 100 fold” and the “change of off-rate with salt” value (at a given temperature, from 5 mM to 500 mM) was “less than 2 fold”. The “fastest off-rate measured (as a time)” value (high temperature) was 40 min.

Reference: patent US9914958B2, “Nucleic acid-based linkers for detecting and measuring interactions” (President and Fellows of Harvard College, priority 2011, dated 2018)
